# Test results as given in PMC6943441, “The Meta-Position of Phe^4 in Leu-Enkephalin Regulates Potency, Selectivity, Functional Activity, and Signaling Bias at the Delta and Mu Opioid Receptors” (Molecules, 2019).
# Where two headings read alike, the source gives them in different places.
# Key:
# µOR [1] = target: T1, µOR (Homo sapiens, UniProt P35372); assay: Competition radioligand binding, [3H]DAMGO
# Procedure: Next, 100 µL of membrane suspension containing 7 µg protein was added to the agonist wells and incubated for 90 min at room temperature. The reaction mixture was then filtered over a GF-B filter plate (Perkin Elmer) followed by four quick washes with ice-cold 50 mM Tris HCl. The plate was dried overnight, after which 50 µL scintillation fluid (Ultimagold uLLT) was added and radioactivity was counted on a Packard TopCount NXT scintillation counter. All working solutions were prepared in a radioligand assay buffer containing 50 mM Tris HCl, 10 mM MgCl2, and 1 mM ethylenediaminetetraacetic acid at pH 7.4.
# FLAG-mouse δOR = target: T2, FLAG-mouse δOR (Mus musculus, UniProt P32300); assay: cAMP GloSensor inhibition assay in HEK 293 cells; assay type: cell-based; settings: for IC50: HEK 293, forskolin 30 µM; for cAMP δOR Efficacy (%+SD): relative to Leu-enkephalin = 100; for LogR (δOR) cAMP: operational model Log R (τ/KA)
# T2 construct: FLAG; expressed in transfected cells; host or cells: HEK 293
# Procedure: (§1) In brief, for cAMP inhibition assays HEK 293 (Life Technologies, Grand Island, NY, USA) cells were transiently transfected in a 1:3 ratio with FLAG-mouse δOR, or HA-mouse µOR and pGloSensor22F-cAMP plasmids (Promega, Madison, WI, USA) using Xtremegene9 (Sigma). Two days post-transfection cells (20,000 cells/well, 7.5 µL) were seeded in low volume Greiner 384-well plates (#82051-458, VWR, Batavia, IL, USA) and were incubated with Glosensor reagent (Promega, 7.5 µL, 2% final concentration) for 90 min at room temperature. […] For β-arrestin recruitment assays, CHO-human µOR PathHunter β-arrestin 2 cells or CHO-human δOR PathHunter β-arrestin 2 cells (DiscoverX, Fremont, CA, USA) were plated (2,500 cells/well, 10 µL) one day prior to stimulation with 2.5 µL drug solution for 90 min at 37 °C/5% CO2, after which cells were incubated with 6 µL cell PathHunter assay buffer (DiscoverX) for 60 min at room temperature as per the manufacturer’s protocol. Luminescence for each of these assays was measured using a FlexStation3 plate reader (Molecular Devices, Sunnyvale, CA, USA).
# (§2) All data are presented as means ± standard error of the mean, and analysis was performed using GraphPad Prism 8 software (GraphPad Software, La Jolla, CA). For in vitro assays, nonlinear regression was conducted to determine pIC50 (cAMP) or pEC50 (β-arrestin 2 recruitment). […] The averages of each independent run were counted as a single experiment and combined to provide a composite curve in favor of providing a ‘representative’ curve. In each experimental run, a positive control/reference compound was utilized to allow the data to be normalized and to calculate the log bias value. A minimum of three independent values were obtained for each compound in each of the cellular assays.
# µOR [2] = target: T1, µOR; assay: cell-based; assay type: cell-based
# Procedure: as §1, §2
# µOR [3] = target: T1, µOR; assay: Bias factor calculation (operational model, cAMP vs β-arrestin 2); settings: DAMGO as reference, >1 = more G protein-biased
# Procedure: Bias factors were calculated using the operational model equation in Prism 8 to calculate Log R (τ/KA) (Table S2) as previously described [12]. […] A bias factor > 1 meant that the agonist was more G protein-biased than the reference compound; A bias factor < 1 meant that the agonist was less G protein-biased than the reference compound.
# HA-mouse µOR = target: T3, HA-mouse µOR (Mus musculus, UniProt P42866); assay: cAMP GloSensor inhibition assay in HEK 293 cells; assay type: cell-based; settings: for IC50: HEK 293, forskolin 30 µM; for LogR (µOR) cAMP: operational model Log R (τ/KA); for cAMP µOR Efficacy (%+SD): relative to DAMGO = 100
# T3 construct: HA; expressed in transfected cells; host or cells: HEK 293
# Procedure: as §1, §2
# Rat plasma stability = settings: for Degradation Products (First Appearance): rat plasma, UPLC-mass spectrometry, time of first appearance in parentheses; for half-life: rat, plasma
# Procedure: Peptides were synthesized using an Aapptec Focus XC automated peptide synthesizer coupled with a heating system using a solid phase peptide synthesis protocol using Fmoc chemistry. Preparative RP-HPLC was performed using an appropriate column and solvent system (described below) and final purity of peptides was determined by UV area % from UPLC analysis. Peptides were purified by Teledyne ISCO EZ Prep system on RediSep® C18 Prep column (30 × 250 mm, 100 Å). […] Plasma stability was also assessed using the above UPLC column and solvent gradient program using a Waters H class Plus Acquity UPLC system coupled with a QDa detector using protocol B.
# Sprague Dawley rat plasma containing K2-ethylenediaminetetraacetic acid (Innovative Research, MI, USA) was transferred into 300 µL aliquots and stored at −20 °C until use. […] After adding analog, an aliquot of the mixture was removed at each indicated time point (0, 5, 10, 15, 20, 30, 60, 120, 240 min) and immediately quenched with 100 μL of a methanol solution containing 20 μM Fmoc-Leu-OH as an internal standard. […] Then, the filtrate was transferred into vials and a 5 μL sample of the resulting solution was analyzed on an UPLC system coupled with a QDa detector. […] Determination of half-life (t1/2) was carried out by using the GraphPad Prism one-phase decay method.
# T2 sequence (P32300 whole entry): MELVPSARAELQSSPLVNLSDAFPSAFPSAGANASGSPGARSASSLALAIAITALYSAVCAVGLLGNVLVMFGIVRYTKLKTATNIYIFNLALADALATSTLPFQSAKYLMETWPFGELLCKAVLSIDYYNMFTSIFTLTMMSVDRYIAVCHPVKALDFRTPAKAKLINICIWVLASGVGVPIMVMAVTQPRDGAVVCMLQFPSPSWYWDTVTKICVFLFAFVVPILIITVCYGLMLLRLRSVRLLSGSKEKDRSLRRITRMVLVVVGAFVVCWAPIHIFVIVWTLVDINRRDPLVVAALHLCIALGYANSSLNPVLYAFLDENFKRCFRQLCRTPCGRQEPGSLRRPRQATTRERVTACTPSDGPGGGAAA
# T1 sequence (P35372 whole entry): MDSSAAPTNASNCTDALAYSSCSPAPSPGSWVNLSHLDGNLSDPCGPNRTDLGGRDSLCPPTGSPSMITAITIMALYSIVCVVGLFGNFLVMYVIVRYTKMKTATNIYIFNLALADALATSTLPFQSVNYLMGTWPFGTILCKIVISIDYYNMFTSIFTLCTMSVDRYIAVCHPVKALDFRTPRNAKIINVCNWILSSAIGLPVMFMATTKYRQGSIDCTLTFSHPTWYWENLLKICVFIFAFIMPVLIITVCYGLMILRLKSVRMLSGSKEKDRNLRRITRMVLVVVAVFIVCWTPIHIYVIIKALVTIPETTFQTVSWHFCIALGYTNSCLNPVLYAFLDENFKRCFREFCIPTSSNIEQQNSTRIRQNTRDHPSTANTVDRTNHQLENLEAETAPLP
# T3 sequence (P42866 whole entry): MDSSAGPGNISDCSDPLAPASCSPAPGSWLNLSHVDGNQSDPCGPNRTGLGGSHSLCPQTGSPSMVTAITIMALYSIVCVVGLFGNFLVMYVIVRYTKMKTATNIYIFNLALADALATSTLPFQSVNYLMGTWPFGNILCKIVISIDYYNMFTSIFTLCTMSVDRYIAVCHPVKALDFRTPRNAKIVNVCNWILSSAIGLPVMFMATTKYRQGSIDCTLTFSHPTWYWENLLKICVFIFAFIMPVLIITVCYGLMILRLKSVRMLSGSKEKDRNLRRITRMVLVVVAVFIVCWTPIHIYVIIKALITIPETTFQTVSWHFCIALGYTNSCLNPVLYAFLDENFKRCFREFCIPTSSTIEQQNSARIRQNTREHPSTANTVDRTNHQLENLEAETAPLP
SMILES,Ki (µOR [1]) [nM],IC50 (FLAG-mouse δOR; read-out: cAMP IC50 (nM) δOR) [nM],cAMP δOR Efficacy (%+SD) (FLAG-mouse δOR) [%],EC50 (µOR [2]) [nM],LogR (µOR) β-arr2 (µOR [2]),β-Arrestin 2 µOR Efficacy (% + SEM) (µOR [2]) [%],Bias Factor µOR (DG = Ref) (µOR [3]),IC50 (HA-mouse µOR; read-out: cAMP IC50 (nM) µOR) [nM],LogR (µOR) cAMP (HA-mouse µOR),cAMP µOR Efficacy (%+SD) (HA-mouse µOR) [%],Degradation Products (First Appearance) (Rat plasma stability),half-life (Rat plasma stability) [min],LogR (δOR) cAMP (FLAG-mouse δOR),IC50 (FLAG-mouse δOR; read-out: cAMP pIC50 ± SEM (δOR) (converted)) [nM],β-Arrestin 2 µOR Efficacy (% + SEM) (µOR [2]; relative to DAMGO = 100%) [%],cAMP µOR Efficacy (%+SD) (HA-mouse µOR; listed as Leu-enkephalin) [%],Bias Factor µOR (DG = Ref) (µOR [3]; listed as 1i (NO2)),Bias Factor µOR (DG = Ref) (µOR [3]; listed as 1f (OMe)),IC50 (HA-mouse µOR; read-out: cAMP pIC50 ± SEM (µOR) (converted)) [nM]
CC(C)C[C@H](NC(=O)[C@H](Cc1cccc(I)c1)NC(=O)CNC(=O)CNC(=O)[C@@H](N)Cc1ccc(O)cc1)C(=O)O [Compound 1d],0.14,0.025,97 ± 4,46.8,6.6,70 ± 3,3.2,4.27,8.0,94 ± 11,Gly-Gly-(meta-I)Phe-Leu (5 min) (meta-I)Phe-Leu (15 min),13.2,,,,,,,
"CC(C)C[C@H](NC(=O)[C@H](Cc1cccc(Cl)c1)NC(=O)CNC(=O)CNC(=O)[C@@H](N)Cc1ccc(O)cc1)C(=O)O [Compound 1b, H2N-Tyr-Gly-Gly-(meta-Cl)Phe-Leu-OH]",,0.022,94 ± 5,67.6,7.2,96 ± 8,0.3,30.2,7.5,99 ± 7,Gly-Gly-(meta-Cl)Phe-Leu (5 min) (meta-Cl)Phe-Leu (30 min),37.8,10.6,,,,,,
"CC(C)C[C@H](NC(=O)[C@H](Cc1cccc(F)c1)NC(=O)CNC(=O)CNC(=O)[C@@H](N)Cc1ccc(O)cc1)C(=O)O [Compound 1a, H2N-Tyr-Gly-Gly-(meta-F)Phe-Leu-OH]",,0.39,95 ± 6,575,5.8,75 ± 13,22.2,,8.0,98 ± 6,Gly-Gly-(meta-F)Phe-Leu (5 min) (meta-F)Phe-Leu (60 min),82.3,9.4,0.339,,,,,
CC(C)C[C@H](NC(=O)[C@H](Cc1cccc(C#N)c1)NC(=O)CNC(=O)CNC(=O)[C@@H](N)Cc1ccc(O)cc1)C(=O)O [Compound 1h],0.3,0.35,100 ± 3,158,5.9,68 ± 4,5.4,12,7.5,92 ± 13,Gly-Gly-(meta-CN)Phe-Leu (5 min) (meta-CN)Phe-Leu (20 min),33,9.3,,,,,,
"C[C@@H](NC(=O)[C@@H](N)Cc1ccc(O)cc1)C(=O)NCC(=O)N(C)[C@@H](Cc1ccccc1)C(=O)NCCO [DAMGO, (D-Ala^2, N-MePhe^4, Gly-ol) enkephalin, reference compound]",,,,,,,1,,7.8,100,,,,,100,,,,
CC(C)C[C@H](NC(=O)[C@H](Cc1cccc(C(F)(F)F)c1)NC(=O)CNC(=O)CNC(=O)[C@@H](N)Cc1ccc(O)cc1)C(=O)O [Compound 1g],,0.11,92 ± 8,56.2,6.6,71 ± 3,4.3,2.45,8.1,90 ± 4,Gly-Gly-(meta-CF3)Phe-Leu (5 min) (meta- CF3)Phe-Leu (30 min),44.5,9.7,,,,,,
"CC(C)C[C@H](NC(=O)[C@H](Cc1ccccc1)NC(=O)CNC(=O)CNC(=O)[C@@H](N)Cc1ccc(O)cc1)C(=O)O [Leu^5-enkephalin, Tyr^1-Gly^2-Gly^3-Phe^4-Leu^5, reference compound]",,,100,,,,,,,100,Gly-Gly-Phe-Leu (5 min) Phe-Leu (10 min),,,,,100 ± 9,,,
CC(C)C[C@H](NC(=O)[C@H](Cc1cccc([N+](=O)[O-])c1)NC(=O)CNC(=O)CNC(=O)[C@@H](N)Cc1ccc(O)cc1)C(=O)O [Compound 1i],0.98,0.47,99 ± 6,537,5.3,60 ± 6,,49,7.2,,Gly-Gly-(meta-NO2)Phe-Leu (5 min) (meta- NO2)Phe-Leu (20 min),28.8,9.0,,,,11.1,,
COc1cccc(C[C@H](NC(=O)CNC(=O)CNC(=O)[C@@H](N)Cc2ccc(O)cc2)C(=O)N[C@@H](CC(C)C)C(=O)O)c1 [Compound 1f],,0.14,98 ± 10,589,5.6,67 ± 3,,8.12,7.4,87 ± 5,Gly-Gly-(meta-OMe)Phe-Leu (5 min) (meta-OMe)Phe-Leu (20 min),46.1,9.8,,,,,8.4,
Cc1cccc(C[C@H](NC(=O)CNC(=O)CNC(=O)[C@@H](N)Cc2ccc(O)cc2)C(=O)N[C@@H](CC(C)C)C(=O)O)c1 [Compound 1e],0.14,0.039,92 ± 8,186,6.1,71 ± 3,11.5,3.72,8.1,85 ± 10,Gly-Gly-(meta-Me)Phe-Leu (5 min) (meta-Me)Phe-Leu (20 min),39.5,10,,,,,,
"CC(C)C[C@H](NC(=O)[C@H](Cc1cccc(Br)c1)NC(=O)CNC(=O)CNC(=O)[C@@H](N)Cc1ccc(O)cc1)C(=O)O [Compound 1c, H2N-Tyr-Gly-Gly-(meta-Br)Phe-Leu-OH]",0.13,0.03,96 ± 4,35.5,7.2,79 ± 6,1.2,,8.1,104 ± 11,Gly-Gly-(meta-Br)Phe-Leu (5 min) (meta-Br)Phe-Leu (15 min),21.5,10.5,,,,,,10
